# From publication PMC5418359, “Topical Ophthalmic Formulation of Trichostatin A and SurR9-C84A for Quick Recovery Post-alkali Burn of Corneal Haze” (Frontiers in Pharmacology, 2017)
# What was measured:
# [1] = test system: conjunctival layer and corneal matrix; assay: H&E histology of corneal segments, rat alkali burn model; assay type: in vivo; settings: 1 M NaOH 1 min, topical treatment 40 min
# Description: After the completion of the study, all tissues that required to be examined (eyes, brain, kidneys, liver, spleen, heart and lungs) were isolated. The cornea was carefully separated from the eye without damaging it and washed using phosphate buffer saline (PBS). Tissues were fixed using 4% paraformaldehyde (PF) overnight at 4°C and then washed in PBS. The tissue segments were dehydrated in graded ethanol, embedded in paraffin and 5–7 μm thick sections were cut using a microtome. Sections were collected on poly-lysine coated slides using the Leica cryostat and were fixed immediately in ice-cold acetone. All the sections were stained for haematoxylin–eosin (H&E) for critical analysis.
# [2] = Blood analysis; assay type: in vivo; parameters: HCT / MCH / WBC / RBC / HGB / MCHC: unit not given here; settings: rat blood
# Description: The analysis of blood samples was performed directly using the ABX Micros ES 60 (Horiba Medicals). The parameters analyzed included the number of red blood cells (RBC’s), white blood cells (WBC’s), platelets and hemoglobin content. Briefly, 20 μL of the blood sample was acquired in the instrument and the readings were recorded.
# [3] = test system: corneal lysate; assay: Multianalyte ELISA of inflammatory cytokines in corneal lysate; assay type: in vivo, rat
# Description: The cytokine profiling was performed using the Rat Inflammatory Cytokines & Chemokines Multi-Analyte ELISArray Kit (QIAGEN, USA). Briefly, serial dilutions of the Antigen Standard and the experimental samples were prepared. 50 μL of Assay Buffer was added to each well of the 8-well ELISA strips. Fifty microliters samples and/or standards were added to the appropriate wells of the ELISA strips and incubated for 2 h at room temperature. The ELISA strips were further washed using 350 μL 1 × Washing Buffer thrice. Hundred microliters of Detection Antibody solution was added to the ELISA strips and incubated for 1 h at room temperature. ELISA wells were washed as mentioned above. Hundred microliters of the Avidin–HRP solution was added to all wells and incubated for 30 min at room temperature. ELISA wells were washed as mentioned above. Hundred microliters of Development Solution was added to each well and incubated for 15 min at room temperature in the dark. Hundred microliters of Stop Solution was added to each well. The color changed from blue to yellow. The absorbance at 450 nm was measured within 30 min of stopping the reaction. The estimation of pg/mL of cytokines was performed using the values obtained from antigen standards and a graph was plotted for the cytokine expression with the effect of treatments.
# [4] = test system: cornea; assay: Mean opacity and mean permeability measurements, rat alkali burn model; assay type: in vivo
# Description: The mean in vivo scores was determined using the mean opacity measurements. The rat eyes were excised carefully and carried to the laboratory in HBSS supplemented with penicillin/streptomycin. The measurement of mean opacity was carried out using an opacitometer which measures the transmission of light through the center of each mounted cornea. The mean permeability score was determined by adding a fluorescent (rhodamine solution) on the anterior side of the holder and the corneas were incubated in a horizontal position for 90 min at 32°C. The medium in the posterior chamber was removed and added to 96 well plates and the OD at 490 nm was read. The readings obtained at OD490 were used to determine the permeability of each treatment with respect to the change in the untreated corneas.
# [5] = test system: rat corneal lysates
# [6] = test system: rat corneal tissues
# [7] = test system: rat eyes post-alkali burn
# [8] = 1 M NaOH 1 min, topical treatment 40 min
structure (smiles),measurement,setting,value
[Na+].[OH-] [NaOH],"corneal tissue integrity (conjunctival layer, corneal matrix), H&E",[1],damage of the conjunctival layer and the corneal matrix
same,MCHC,[2],37.51 ± 4.79
same,RBC,[2],6.53 ± 2.89
same,WBC,[2],3.4 ± 1.19
same,MCV,[2]; in fL (unit assumed),62.5 ± 8.01
same,"GMCSF expression, ELISA",[3],enhanced
same,"IFN-gamma expression, ELISA",[3],upregulated
same,"IL-1 beta expression, ELISA",[3],increase
same,"IL-4 expression, ELISA",[3],decrease
same,"IL-6 expression, ELISA",[3],enhanced
same,"IL-10 expression, ELISA",[3],significant increase
same,"IL-12 expression, ELISA",[3],decreased
same,"IL-13 expression, ELISA",[3],enhanced
same,"Rantes expression, ELISA",[3],upregulated
same,"TNF-alpha expression, ELISA",[3],enhanced
same,Mean in vitro score,[4]; [8],10.2 ± 0.5^∗∗∗
same,Mean opacity measurement,[4]; [8],2.5 ± 0.5^∗∗
same,Predicted irritation potential,"[4]; rat, in vivo",Moderate irritation
same,"increase in alpha-SMA expression, western blot",[5]; NaOH insult,2.7 fold
same,"decrease/downregulation of collagen type IV, western blot","[5]; rat, in vivo, iv",1.1 fold
same,"alpha-SMA expression, immunofluorescence",[6]; confocal microscopy,substantially enhanced
same,"collagen type IV expression, immunofluorescence",[6]; confocal microscopy,downregulated
same,"survivin expression, immunofluorescence",[6]; confocal microscopy,slightly increased
same,"clathrin (conjunctival layer) and claudin (corneal layer) expressions, immunofluorescence",[6]; post-NaOH insult,substantially lowered
same,"Collagen type IV gene expression, qRT-PCR",[7],increase
same,"IL-1 beta gene expression, qRT-PCR",[7],decreased
same,"IL-6 gene expression, qRT-PCR",[7],increased
same,"MMP-2 gene expression, qRT-PCR",[7],increase
same,"MMP-9 gene expression, qRT-PCR",[7],lowered
same,"TGF-beta-1 gene expression, qRT-PCR",[7],increase
same,"TNF-alpha gene expression, qRT-PCR",[7],increased
same,"alpha-integrin 5 gene expression, qRT-PCR",[7],lowered
